The values that follow come from patent publication US10761085B2, “Method for determining a protein-protein interaction” (MEDICAL & BIOLOGICAL LABORATORIES CO., LTD., priority 2014, dated 2020).

Assay [1] deals with T1, FKBP12 mutant homodimer formation (Homo sapiens, UniProt P62942, F37V).
T1 construct: expressed in transfected cells; host or cells: HEK293
As to the kind of experiment: Fluorescent focus detection of FKBP12 mutant homodimer formation, PB1-mAG1-FKBP12 mutant transiently expressed in HEK293 cells (Example 1). In kind it is cell-based. The settings on record: 500 nM. How it is done:
Next, the pPB1-hmAG1-FKBP12 mutant prepared as described above was introduced into HEK293 cells, and the fusion protein according to the present invention was expressed in the cells. Specifically, first, HEK293 cells were cultured in DMEM (high glucose, manufactured by SIGMA ALDRICH CO.) supplemented with 10% FBS (manufactured by Equitech-Bio Inc.) and 1% penicillin-streptomycin (manufactured by Life Technologies Corporation). Then, on the day before the transfection, the HEK293 cells cultured in this manner were seeded onto an 8-well chamber slide (manufactured by Nunc A/S), and cultured in 200 μL of the culture solution per well. Subsequently, 100 ng of the pPB1-hmAG1-FKBP12 mutant was diluted with 10 μL of OptiMEM (manufactured by Life Technologies Corporation), and 0.4 μL of Turbofect Transfection Reagent (manufactured by Thermo Fisher Scientific Inc.) was added thereto and then stirred. Thereafter, the resultant was further mixed with 100 μL of the culture solution, then added to the HEK293 cells, and cultured for 20 hours.
After the transfection treatment, the HEK293 cells were observed using an IX-71 inverted fluorescence microscope (manufactured by Olympus Corporation, the magnification of the objective lens: 20×), a U-MGFPHQ filter (manufactured by Olympus Corporation), and an ORCA-ER digital camera (manufactured by Hamamatsu Photonics K. K.). […]
Target sequence in this assay (P62942 whole entry F37V): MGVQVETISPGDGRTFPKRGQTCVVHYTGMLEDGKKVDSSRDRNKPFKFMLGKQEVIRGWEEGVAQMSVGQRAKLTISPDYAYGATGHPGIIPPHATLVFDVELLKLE

Assay [2] deals with T1, FKBP12 mutant homodimer formation. The assay can be described thus: FKBP12 mutant homodimer formation with SAM domain of Tankyrase 1 as multimerizable protein, HEK293 cells (Example 9). In kind it is cell-based. The settings on record: 500 nM, 3 hours, room temperature; Tankyrase-mAG1-FKBP12 mutant. How it is done:
HEK293 cells were cultured in DMEM (high glucose) supplemented with 10% FBS and 1% penicillin-streptomycin. Then, on the day before the transfection, the cells were seeded onto an 8-well chamber slide. The cells were cultured in 200 μL of the culture solution per well. Subsequently, a DNA solution was prepared by mixing 200 ng of the plasmid with 10 μL of OptiMEM, and 0.8 μl of Fugene HD (manufactured by Promega Corporation) was added thereto and then stirred. The resultant was further mixed with 100 μl of the culture solution, then added to the HEK293 cells, and cultured for 20 hours.
After the transfection treatment, the HEK293 cells were observed using an IX-81 inverted microscope and an ORCA-Flash 4.0 digital camera. A U-MNIBA3 filter was used for the observation. The homodimer formation of the FKBP12 mutant was induced by adding 500 nM B/B Homodimerizer to the medium. In addition, after the drug was added, the resultant was left standing at room temperature. The cells were observed after 3 hours elapsed.
Target sequence in this assay (P62942 2-108 F37V limits assumed): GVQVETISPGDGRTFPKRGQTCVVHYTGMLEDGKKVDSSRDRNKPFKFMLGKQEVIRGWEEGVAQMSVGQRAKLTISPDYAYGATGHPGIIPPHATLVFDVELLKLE

For assay [3] the target is unchanged. The assay can be described thus: Reversible FKBP12 mutant homodimer formation in HEK293 cells constitutively expressing PB1-hmAG1-FKBP12 mutant, spot detection image analysis (Example 2). In kind it is cell-based. How it is done: The pPB1-hmAG1-FKBP12 mutant was introduced into HEK293 cells, and cells constitutively expressing the fusion protein according to the present invention (PB1-hmAG1-FKBP12 mutant) were prepared. Specifically, on the day before the introduction of the expression vector, HEK293 cells were seeded onto a 35-mm dish (manufactured by BD Falcon), and cultured in 1.5 mL of the culture solution. Then, 1 μg of the pPB1-hmAG1-FKBP12 mutant was diluted with 100 μL of OptiMEM (manufactured by Life Technologies Corporation), and 10 μL of PolyFect (registered trademark) Transfection Reagent (manufactured by QIAGEN N.V.) was added thereto and then stirred. […] Thereafter, G418 was added thereto at a concentration of 500 μg/mL, and further cultured for one week. After that, viable cells were detached using a trypsin solution, diluted with a culture solution containing G418 (500 μg/ml), and then cultured in a 96-well plate at 0.5 cells/well. […]
The images captured over time by the above method were analyzed using spot detection (spot detector) of an icy image analysis program (icy.bioimageanalysis.org/). Moreover, from the images, a graph was created in which the X axis represents the operation time (minutes), and the Y axis represents a numerical value of a total fluorescence intensity in regions of the fluorescent foci within boxes drawn around the regions by lines.
Target sequence in this assay (P62942 whole entry F37V): as the sequence (P62942 whole entry F37V) above

The target is the same in assay [4]. The assay can be described thus: Comparative Example 1: method of PTL 4 (PB1-FKBP12 mutant and AG-FKBP12 mutant) for FKBP12 mutant homodimer formation in HEK293 cells. In kind it is cell-based. The note with it: method of PTL 4, 66 minutes after the drug addition. How it is done:
In the detection system described in PTL 4, the PB1 domain of the p62 protein was selected as the association-inducing protein. Moreover, AG was selected as the fluorescent multimerizable protein, and a DNA encoding humanized-codon AG (hAG) was used.
Further, an expression vector (pPB1-FKBP12 mutant) encoding a fusion protein composed of the FKBP12 mutant fused to the C-terminus of the PB1 domain of the p62 protein was prepared as follows. Specifically, a DNA having the nucleotide sequence of SEQ ID NO: 31 was artificially synthesized which contained restriction enzyme sites at either end of a DNA having a nucleotide sequence encoding the FKBP12 mutant (the DNA encoding a protein having the amino acid sequence of SEQ ID NO: 32). Then, the obtained synthetic DNA was cleaved with EcoRI and XhoI, and inserted into pAsh-MCLinker (manufactured by MEDICAL & BIOLOGICAL LABORATORIES CO., LTD.) having been treated with a combination of the same restriction enzymes. Thus, a pPB1-FKBP12 mutant was constructed. […]
Further, 100 ng of each of the expression vectors thus constructed was mixed, that is, 200 ng of these were mixed in total, and fluorescent foci in cells before and after the drug addition were detected according to the same methods as <Cell Culturing and Transfection> and <Observation of Cells> described in Example 1.
Target sequence in this assay (P62942 2-108 F37V limits assumed): as the sequence (P62942 2-108 F37V limits assumed) above

The target is the same in assay [5]. The assay can be described thus: FKBP12 mutant homodimer formation with DG1 or mCherry as fluorescent protein, HEK293 cells (Example 8). In kind it is cell-based. The note with it: 500 nM, 1, 2 and 3 hours, room temperature; PB1-DG1-FKBP12 mutant and PB1-mCherry-FKBP12 mutant. An excerpt:
To express the PB1-hDG1-FKBP12 mutant or the PB1-mCherry-FKBP12 mutant in cells, the vectors encoding these fusion proteins were introduced into HEK293 cells by the same method as that described in Example 4.
After the transfection treatment, the HEK293 cells were observed using an IX-81 inverted microscope and an ORCA-Flash 4.0 digital camera. A U-MNIBA3 filter (manufactured by Olympus Corporation) and a U-MWIG3 filter (manufactured by Olympus Corporation) were used respectively for the DG1 and mCherry observations. The homodimer formation of the FKBP12 mutant was induced by adding 500 nM B/B Homodimerizer. After the drug addition, the resultant was left standing at room temperature. The cells were observed after 1, 2, and 3 hours elapsed. FIGS. 22 and 23 show images before the drug addition and 1, 2, and 3 hours after the addition.
Target sequence in this assay (P62942 2-108 F37V limits assumed): as above

Assay [6] concerns calmodulin and M13 peptide tetramer formation (H1 receptor, calcium ion). The settings on record: 100 μM. How it is done:
To express the fusion proteins in a combination of the following (A) or (B), the plasmid vectors prepared above were introduced into HeLaS3 cells by a method described below: • (A) Calumodulin-mAG1 and M13peptide-PB1; and • (B) Calumodulin-mUkG1 and M13peptide-PB1.
First, HeLaS3 cells were cultured in DMEM (low glucose) containing 10% FBS (manufactured by Equitech-Bio Inc.). Then, on the day before the transfection, the HeLaS3 cells were seeded onto a 35-mm glass base dish (manufactured by Asahi Glass Co., Ltd.). Subsequently, at the time of the transfection, the plasmids (1 μg+1 μg) were diluted with OptiMEM, and 10 μl of PolyFect(registered trademark) Transfection Reagent was added thereto and stirred. The resultant was further mixed with 600 μl of the culture solution, thereafter added to the HeLaS3 cells, and cultured for 22 hours.
Then, 100 μM histamine (manufactured by Wako Pure Chemical Industries, Ltd.) was added thereto, and fluorescence images were captured over time.

Assay [7] concerns homodimer formation of ERK2. The assay can be described thus: Fluorescent focus detection of ERK2 homodimer formation after EGF, serum-starved HEK293 cells (Example 11). In kind it is cell-based. How it is done: HEK293 cells were selected as cells into which the expression vectors prepared above were introduced. The cells were first cultured in DMEM (high glucose) supplemented with 10% FBS (manufactured by Equitech-Bio Inc.) and 1% penicillin-streptomycin. Then, on the day before the introduction of the expression vectors, these cells were seeded onto a 35-mm dish, and cultured in 1.5 ml of the culture solution. […] Thereafter, each solution of the expression vectors was added to the cultured cells. The pERK2-hmAG1PB1 transfected cells were observed 20 hours after the vector introduction. To the pERK2-PB1-hmAG1 transfected cells, G418 was added at a concentration of 500 μg/mL, and further cultured for one week. After that, viable cells were detached using a trypsin solution, diluted with a culture solution containing G418 (500 μg/ml), and then cultured in a 96-well plate at 0.5 cells/well. Subsequently, cells which formed single colonies were cultured to expand.
Then, the cells were observed using an IX-71 inverted fluorescence microscope (the magnification of the objective lens: 20×), a U-MGFPHQ filter, and an ORCA-ER digital camera. The homodimer formation of ERK2 was induced by adding EGF (epidermal growth factor, manufactured by Sigma-Aldrich Co.) to the buffer to the final concentration of 50 ng/ml. FIGS. 26 and 27 show images before the EGF addition and 8 minutes after the addition.

Assay [8] relates to homodimer formation of STAT3. The assay can be described thus: Fluorescent focus detection of STAT3 homodimer formation after IL-6, HEK293 cells constitutively expressing PB1-mAG1-STAT3 (Example 12). In kind it is cell-based. The note with it: 100 ng/ml, 50 minutes; none before addition. How it is done: HEK293 cells were selected as cells into which the expression vector prepared above was introduced. The cells were first cultured in DMEM (high glucose) supplemented with 10% FBS and 1% penicillin-streptomycin. Then, on the day before the introduction of the expression vector, these cells were seeded onto a 35-mm dish, and cultured in 1.5 ml of the culture solution. […] Thereafter, the mixture solution of the expression vector was added to the cultured cells. After that, G418 was added thereto at a concentration of 500 μg/mL, and further cultured for one week. Next, viable cells were detached using a trypsin solution, diluted with a culture solution containing G418 (500 μg/ml), and then cultured in a 96-well plate at 0.5 cells/well. Subsequently, cells which formed single colonies were cultured to expand.
Then, the cells were observed using an IX-71 inverted fluorescence microscope (the magnification of the objective lens: 20×), a U-MGFPHQ filter, and an ORCA-ER digital camera. The homodimer formation of STAT3 was induced by adding Human Recombinant IL-6 (manufactured by R&D SYSTEMS, INC.) to the buffer to the final concentration of 100 ng/ml.

`CC[C@H](C(=O)N1CCCC[C@H]1C(=O)O[C@H](CCc1ccc(OC)c(OC)c1)c1cccc(OCC(=O)NCC(CNC(=O)COc2cccc([C@@H](CCc3ccc(OC)c(OC)c3)OC(=O)[C@@H]3CCCCN3C(=O)[C@@H](CC)c3cc(OC)c(OC)c(OC)c3)c2)CN(C)C)c1)c1cc(OC)c(OC)c(OC)c1` [B/B Homodimerizer]: the fluorescent focus formation result in assay [1] (38 minutes after the drug addition, none before addition) was “fluorescent foci were observed in multiple cells”; in assay [1] (76 minutes after the addition), “many cells which exhibited distinctive fluorescent foci were observed”; in assay [2], “fluorescent focus formations attributable to the addition of the drug”; in assay [3] (500 nM, 90 minutes after the B/B Homodimerizer addition) it was “distinctive fluorescent foci were observed in multiple cells”; in assay [4] it was “fluorescent foci were formed only in a few cells”; in assay [5], “drug-addition dependent increases in fluorescent foci were observed”. In addition, in assay [3] (when formation of fluorescent foci started to be observed immediately after the B/B Homodimerizer addition), the “fluorescence intensity relative to that before the addition” value amounted to 1.9 times.

On to `NCCc1c[nH]cn1` [histamine], for which the fluorescent focus formation entry in assay [6] (60 seconds after the ligand was added, Calmodulin-mAG1 or Calmodulin-mUkG1 with M13peptide-PB1) was “fluorescent focus formation was detected”. In addition, the “extinction of fluorescent foci” value in assay [6] (300 seconds after the ligand addition (FIG. 35)) was “the fluorescent foci (assemblies) were extinguished”.

Take “EGF: epidermal growth factor, manufactured by Sigma-Aldrich Co. (NSDSECPLSHDGYCLHDGVCMYIEALDKYACNCVVGYIGERCQYRDLKWWELR; UniProt P01133 971-1023, looked up)”: the fluorescent focus formation entry in assay [7] (50 ng/ml, 8 minutes, ERK2-mAG1-PB1 transient, none before addition) is “fluorescent foci were observed in multiple cells”; in assay [7] (8 minutes after EGF addition, cells constitutively expressing ERK2-PB1-hmAG1 (FIG. 27)) it was “fluorescent foci indicating the homodimer formation of ERK2 were detected”.

For the compound “IL-6: Human Recombinant IL-6, manufactured by R&D SYSTEMS, INC.”, the fluorescent focus formation result in assay [8] was “fluorescent foci were observed in multiple cells”.
